Assay results: PMC8120209, “Longitudinal evaluation of a novel BChE PET tracer as an early in vivo biomarker in the brain of a mouse model for Alzheimer disease” (Theranostics, 2021)

Legend:
Assay in all cases: biochemical
Set-up in all cases: Eurofins SafetyScreen44 radioligand displacement, inhibition of control specific binding
Settings in all cases: read-out: % Inhibition of Control Specific Binding, Mean
kappa (h) (KOP) = molecular target: T1, kappa (h) (KOP) (Homo sapiens, UniProt P41145)
T1 construct: gene OPRK1

ETA(h) = molecular target: T2, ETA(h) (Homo sapiens, UniProt P25101)
T2 construct: gene EDNRA

A2A(h) = molecular target: T3, A2A(h) (Homo sapiens, UniProt P29274)
T3 construct: gene ADORA2A
T3 sequence (P29274 whole entry): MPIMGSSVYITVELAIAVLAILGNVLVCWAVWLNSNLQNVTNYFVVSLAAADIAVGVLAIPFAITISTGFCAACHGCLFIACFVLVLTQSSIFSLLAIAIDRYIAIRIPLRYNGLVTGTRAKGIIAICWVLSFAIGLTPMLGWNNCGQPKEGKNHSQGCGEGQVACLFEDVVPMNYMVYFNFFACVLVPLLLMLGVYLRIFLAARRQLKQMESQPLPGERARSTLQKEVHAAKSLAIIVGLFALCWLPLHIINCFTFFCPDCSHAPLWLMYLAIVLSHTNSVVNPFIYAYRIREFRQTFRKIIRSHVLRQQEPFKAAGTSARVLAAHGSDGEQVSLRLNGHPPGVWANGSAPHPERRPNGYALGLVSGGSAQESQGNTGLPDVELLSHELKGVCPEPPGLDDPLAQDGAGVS

T1 sequence (P41145 whole entry): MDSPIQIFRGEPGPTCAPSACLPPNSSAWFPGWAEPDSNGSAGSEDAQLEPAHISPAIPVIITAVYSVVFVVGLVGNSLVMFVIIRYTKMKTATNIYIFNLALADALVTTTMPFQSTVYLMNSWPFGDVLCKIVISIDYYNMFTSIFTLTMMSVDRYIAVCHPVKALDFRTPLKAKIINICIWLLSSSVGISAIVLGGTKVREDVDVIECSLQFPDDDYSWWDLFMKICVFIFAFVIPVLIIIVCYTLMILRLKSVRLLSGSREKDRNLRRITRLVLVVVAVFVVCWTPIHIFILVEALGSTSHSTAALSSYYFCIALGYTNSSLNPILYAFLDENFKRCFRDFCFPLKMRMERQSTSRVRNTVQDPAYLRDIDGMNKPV
T2 sequence (P25101 whole entry): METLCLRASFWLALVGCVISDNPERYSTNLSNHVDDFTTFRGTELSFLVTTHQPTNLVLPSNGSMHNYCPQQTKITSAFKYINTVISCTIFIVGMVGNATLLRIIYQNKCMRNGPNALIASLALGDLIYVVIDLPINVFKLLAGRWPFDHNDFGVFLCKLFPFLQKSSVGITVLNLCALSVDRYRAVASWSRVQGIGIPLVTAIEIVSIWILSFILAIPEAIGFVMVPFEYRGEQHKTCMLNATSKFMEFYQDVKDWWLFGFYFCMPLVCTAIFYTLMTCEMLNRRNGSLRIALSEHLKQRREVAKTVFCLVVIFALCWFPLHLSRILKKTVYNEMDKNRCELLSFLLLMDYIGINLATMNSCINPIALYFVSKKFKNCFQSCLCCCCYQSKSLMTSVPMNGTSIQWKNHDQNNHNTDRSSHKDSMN

COCCN(CC1CCCN(Cc2ccccc2)C1)S(=O)(=O)c1ccc2ccccc2c1 (racemic) [compound 4, (±)N-((1-benzylpiperidin-3-yl)methyl)-N-(2-methoxyethyl)naphthalene-2-sulfonamide]
inhibition at 10 µM (kappa (h) (KOP)): 26.1%
inhibition at 10 µM (ETA(h)): -3.9%
inhibition at 10 µM (A2A(h)): 20.5%
